Data published in article doi:10.1101/2025.02.17.638454, “Synergistic RAS-MAPK and AKT Activation in MYC-Driven Tumors via Adjacent PVT1 Rearrangements” (bioRxiv, 2025).

Experiments:
D458 cells [1] = assay: Proliferation assay D458; assay type: cell-based, human; details: D458, stable knockdown of PVT1ts vs sh.Cntrl; two-way ANOVA
MYC [2] = assay: Western blot of MYC in D458; assay type: cell-based, human; details: D458, stable knockdown of PVT1ts vs sh.Cntrl; n=3, unpaired t-test
Protocol: For whole-cell lysate, the cell pellet was resuspended in RIPA buffer (Cell Signaling Technologies, Danvers, MA) supplemented with a protease inhibitor cocktail (Cell Signaling Technologies) and incubated on ice for 20 minutes. The lysate was then centrifuged at 14,000 revolutions/minute for 10 minutes at 4°C, and the supernatant was harvested. Protein concentration was quantified by BCA Protein Assay Kit (Thermo Fisher Scientific) as per kit protocol. Next, 20 μg of whole-cell lysate was electrophoresed on a 4%–20% gradient polyacrylamide gel with SDS (Bio-Rad, Hercules, CA) and electroblotted onto polyvinylidene difluoride membranes (Bio-Rad). Membranes were blocked in Tris-buffered saline with 5% nonfat milk and 0.1% Tween and probed with antibodies. Bound proteins were detected with horseradish-peroxidase–conjugated secondary antibodies (Cell Signaling Technologies) and SuperSignal West Femto (Thermo Fisher Scientific). Antibodies used were anti-c-MYC (Cell Signaling Technology, 5605, anti-Phospho-c-MYC (Ser62) (Cell Signaling Technology, 13748), anti-β ACTIN (Cell Signaling Technology, 8457), anti-Phospho-p44/42 (Erk1/2) (Thr202/Tyr204) (Cell Signaling Technology, 4370), anti-p44/42 (Erk1/2) (Cell Signaling Technology, 4695), anti-Phospho-MEK1/2 (Ser217/221) (Cell Signaling Technology, 9154), anti-MEK1/2 (Cell Signaling Technology, 9122), anti-Phospho-p90RSK (Ser380) (Cell Signaling Technology, 11989), anti-RSK1/RSK2/RSK3 (Cell Signaling Technology, 9355), Anti-Rabbit IgG, HRP-linked Antibody (Cell Signaling Technology, 7074). Anti-FFX (Firefox) monoclonal antibodies were custom produced by Proteintech using FFX residues 13–104 as epitope.
The HNB ORF and eGFP (control) were cloned in an inducible lentivirus expression, TRE-gateway plasmid (pLIX_403, Addgene, #41395). Lentivirus was produced in HEK293T cells using the protocol described above. D458, NCI-H1792 and COLO 320DM cells were transfected with inducible HNB lentivirus and selected with 1 μg/mL concentration of Puromycin. Selected cells were seeded at a concentration of 4 × 10^5 cells per well. After 24 hours of seeding, the cells were treated with 1 μg/mL Doxycycline for 48 hours. The cells were then lysed using RIPA buffer and 1X protease inhibitor cocktail. The protein lysates were collected and quantified using the previously described protocol. 20 μg of whole-cell lysate was electrophoresed on a 4%–20% gradient polyacrylamide gel with SDS (Bio-Rad, Hercules, CA) and electroblotted onto polyvinylidene difluoride membranes (Bio-Rad). […] Bound proteins were detected with horseradish-peroxidase–conjugated secondary antibodies (Cell Signaling Technologies) and SuperSignal West Femto (Thermo Fisher Scientific). […]

D458 cells [3] = assay: Orthotopic transplantation of D458 into brains of immunocompromised mice; assay type: in vivo; details: D458 sh.RNA1-PVT1ts vs sh.Cntrl in mouse brain; bioluminescence day 9, 14, 21; n=10 each, unpaired t-test
Protocol: All animal procedures were conducted in accordance with the guidelines established by the Institutional Animal Care and Use Committee of Sanford Burnham Prebys Medical Discovery Institute. Efforts were made to minimize animal suffering and to reduce the number of animals used as per the guidelines of AAALAC International and a Multiple Project Assurance A3053–1 is on file in the OLAW, DHHS.

U2OS cells = assay: Proliferation assay U2OS; assay type: cell-based, human; details: si.PVT1ts vs si_ctrl, n=3, two-way ANOVA
Source text: (§1) Cancer cell lines: COLO-320DM, SK-PN-DW, U2OS, BxPC-3, DU145, SKBR-3 and, NCI-H1792 were obtained from American Type Culture Collection (Rockville, MD) and grown in their required growth medium per the American Type Culture Collection description. D458 and MB002 were obtained from Dr. Michael Taylor’s lab at SickKids hospital, Toronto. Cell line identity for the master stocks were verified by STR genotyping (IDEXX BioResearch)
(§2) Supplementary Figure 14: Analysis of Cell Proliferation in MYC/PVT1 Neutral Cell Lines
(§3) (U2OS, BxPC-3, DU-145) following Transfection with si_PVT1ts or si_ctrl: Each experiment
(§4) was performed in triplicate (n=3), and statistical significance was determined using two-way
(§5) ANOVA (P values indicated)
(§6) .CC-BY 4.0 International licenseavailable under a
(§7) (which was not certified by peer review) is the author/funder, who has granted bioRxiv a license to display the preprint in perpetuity. It is made
(§8) The copyright holder for this preprintthis version posted February 22, 2025.; https://doi.org/10.1101/2025.02.17.638454doi: bioRxiv preprint […]

BxPC-3 cells = assay: Proliferation assay BxPC-3; assay type: cell-based, human; details: BxPC-3, si.PVT1ts vs si_ctrl; n=3, two-way ANOVA
Source text: as §1, §2, §3, §4, §5, §6, §7, §8

DU-145 cells = assay: Proliferation assay DU-145; assay type: cell-based, human; details: DU-145, si.PVT1ts vs si_ctrl; n=3, two-way ANOVA
Source text: as §1, §2, §3, §4, §5, §6, §7, §8

MYC [4] = assay: Western blot of MYC in U2OS; assay type: cell-based, human; details: si.PVT1ts vs si.Ctrl, n=3, unpaired t-test
Protocol: (§9) For whole-cell lysate, the cell pellet was resuspended in RIPA buffer (Cell Signaling Technologies, Danvers, MA) supplemented with a protease inhibitor cocktail (Cell Signaling Technologies) and incubated on ice for 20 minutes. The lysate was then centrifuged at 14,000 revolutions/minute for 10 minutes at 4°C, and the supernatant was harvested. Protein concentration was quantified by BCA Protein Assay Kit (Thermo Fisher Scientific) as per kit protocol. Next, 20 μg of whole-cell lysate was electrophoresed on a 4%–20% gradient polyacrylamide gel with SDS (Bio-Rad, Hercules, CA) and electroblotted onto polyvinylidene difluoride membranes (Bio-Rad). Membranes were blocked in Tris-buffered saline with 5% nonfat milk and 0.1% Tween and probed with antibodies. Bound proteins were detected with horseradish-peroxidase–conjugated secondary antibodies (Cell Signaling Technologies) and SuperSignal West Femto (Thermo Fisher Scientific). […]
Supplementary Figure 10: FFX protein augments MYC expression (A) Western blot analysis of MYC expression in U2OS cells ectopically transduced with constructs expressing GFP (control) or FFX. […] (C&D) Western blot analysis and quantification of MYC expression in U2OS cells transduced with GFP (control), FFX, FFX(CO), and FFX ATG>TGA. […]

MYC [5] = assay: Western blot of MYC in BxPC-3; assay type: cell-based, human; details: BxPC-3, si.PVT1ts vs si.Ctrl; n=3, unpaired t-test
Protocol: as §9

MYC [6] = assay: Western blot of MYC in DU-145; assay type: cell-based, human; details: DU-145, si.PVT1ts vs si.Ctrl; n=3, unpaired t-test
Protocol: as §9

Substance | cellular proliferation (D458 cells [1]) | MYC protein levels (MYC [2]) | tumor growth after orthotopic injection (D458 cells [3]) | cellular proliferation (U2OS cells) | cellular proliferation (BxPC-3 cells) | cellular proliferation (DU-145 cells) | MYC protein levels (MYC [4]) | MYC protein levels (MYC [5]) | MYC protein levels (MYC [6])
shRNA1-PVT1ts: shRNA against PVT1ts, CCGGGGACAGCTTCAACCCATTACG CTCGAGCGTAATGGGTTGAAGCTGTCCTTTTTG (CCGGGGACAGCTTCAACCCATTACGCTCGAGCGTAATGGGTTGAAGCTGTCCTTTTTG) | increased proliferation | increased proliferation (Figure 4D) and MYC protein levels | grew significantly more aggressively than controls |  |  |  |  |  | 
shRNA2-PVT1ts: shRNA against PVT1ts, CCGGACCTATGAGCTTTGAATAATT CAAGAGATTATTCAAAGCTCATAGGTTTTTT (CCGGACCTATGAGCTTTGAATAATTCAAGAGATTATTCAAAGCTCATAGGTTTTTT) | increased proliferation | increased proliferation (Figure 4D) and MYC protein levels |  |  |  |  |  |  | 
si.PVT1ts: siRNA targeting variants containing exons 7–9, 5’-ACCUAUGAGCUUUGAAUAA-3’ (other strand not given here) |  |  |  | proliferate faster | proliferate faster | proliferate faster | increase in MYC protein levels | increase in MYC protein levels | increase in MYC protein levels
